# In patent US10682323B2, “Therapeutic agent for glaucoma” (TOA EIYO LTD., priority 2016, dated 2020):
# Target: T1, human sGC (Homo sapiens, UniProt Q02153)
# T1 construct: expressed in transfected cells; host or cells: CHO-K1 cells (Chinese hamster ovary), stably co-expressing mouse CNGA2 as the calcium read-out channel
# T1 sequence (Q02153 1-619): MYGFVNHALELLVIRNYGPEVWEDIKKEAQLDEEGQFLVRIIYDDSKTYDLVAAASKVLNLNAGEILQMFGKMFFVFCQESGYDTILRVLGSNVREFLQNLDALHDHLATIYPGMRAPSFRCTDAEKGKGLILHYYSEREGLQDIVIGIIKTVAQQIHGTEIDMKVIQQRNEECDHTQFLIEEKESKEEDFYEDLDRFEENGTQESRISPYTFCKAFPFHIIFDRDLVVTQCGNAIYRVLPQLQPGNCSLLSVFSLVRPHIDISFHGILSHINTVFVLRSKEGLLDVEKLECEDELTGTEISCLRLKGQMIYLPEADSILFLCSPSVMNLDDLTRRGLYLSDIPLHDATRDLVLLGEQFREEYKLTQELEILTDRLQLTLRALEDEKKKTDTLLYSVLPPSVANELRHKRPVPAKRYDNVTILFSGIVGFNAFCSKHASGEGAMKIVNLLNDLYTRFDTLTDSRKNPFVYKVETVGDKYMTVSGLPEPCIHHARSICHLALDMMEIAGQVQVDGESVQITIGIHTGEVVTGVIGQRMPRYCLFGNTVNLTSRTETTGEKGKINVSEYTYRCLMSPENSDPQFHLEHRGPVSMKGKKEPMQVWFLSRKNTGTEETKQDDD
# T1 sequence (Q02108 1-690 partner): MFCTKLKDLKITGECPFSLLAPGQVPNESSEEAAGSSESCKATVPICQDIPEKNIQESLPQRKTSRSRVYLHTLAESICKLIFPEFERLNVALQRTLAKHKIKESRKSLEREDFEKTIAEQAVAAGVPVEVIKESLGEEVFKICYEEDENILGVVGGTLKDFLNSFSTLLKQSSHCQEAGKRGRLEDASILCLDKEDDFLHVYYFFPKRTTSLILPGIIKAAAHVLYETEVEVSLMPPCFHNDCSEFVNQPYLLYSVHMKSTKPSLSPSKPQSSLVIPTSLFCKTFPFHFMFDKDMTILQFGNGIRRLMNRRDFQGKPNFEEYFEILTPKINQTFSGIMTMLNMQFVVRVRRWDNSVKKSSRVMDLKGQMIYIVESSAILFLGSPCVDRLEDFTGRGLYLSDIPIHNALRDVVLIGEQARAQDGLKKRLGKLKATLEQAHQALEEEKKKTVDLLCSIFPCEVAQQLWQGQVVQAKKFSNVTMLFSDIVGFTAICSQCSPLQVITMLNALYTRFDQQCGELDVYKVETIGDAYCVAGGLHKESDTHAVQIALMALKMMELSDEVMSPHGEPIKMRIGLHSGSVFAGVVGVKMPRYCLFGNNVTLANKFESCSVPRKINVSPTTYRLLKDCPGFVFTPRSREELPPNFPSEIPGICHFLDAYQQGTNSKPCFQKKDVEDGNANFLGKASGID
# Test: Measurement of sGC activating effect in CHO-K1 cells stably expressing human sGC and mouse CNGA2
# Format: cell-based
# Conditions: CHO-K1 cells expressing human sGC and mouse CNGA2, Fura2 calcium readout, 10 μmol/L ODQ in assay buffer
# Description: Chinese Hamster ovary cells (CHO-K1 cells) modified for stably expressing human sGC α subunit and β subunit, and a mouse cyclic nucleotide gated channel (CNGA2) were used in the test.
# The CHO-K1 cells stably expressing human sGC and mouse CNGA2 were cultured at 37° C. in a F-12 medium supplemented with 10% (v/v) fetal bovine serum (FBS), penicillin (100 U/mL), streptomycin (100 μg/mL), G418 (250 μg/mL), and Zeocin (250 μg/mL). The cells were suspended in a culture medium, seeded in a 96 well plate, and cultured at 37° C. for 24 hours. The cells were washed with an assay buffer 1 (140 mmol/L of sodium chloride, 5 mmol/L of potassium chloride, 0.5 mmol/L of magnesium chloride, 0.01 mmol/L of calcium chloride, 10 mmol/L of glucose, 0.4 mmol/L of magnesium sulfate, 10 mmol/L of 4-(2-hydroxyethyl)piperazine-1-yl ethanesulfonic acid, 125 μmol/L of sulfinpyrazone, pH 7.4), and then an indicator solution in which Fura2-AM as a fluorescent Ca2+ indicator is dissolved in assay buffer 1 at a concentration of 5 μmol/L was added thereto, and cultured at 37° C. for 60 minutes. The culture medium was removed, the cells were washed with assay buffer 1, the test compound solution was added thereto, and cultured at room temperature for 10 minutes. The plate was mounted on a fluorescence microplate reader (FlexStation II, available from Molecular Devices) with setting of excitation wavelengths of 340 and 380 nm and a detection wavelength of 510 nm, an intracellular calcium concentration was measured as a fluorescent intensity ratio obtained from each excitation wavelength.
# In this test, the solution of the test compound was prepared by dissolving each test compound in DMSO at a concentration of 10 mmol/L, and then diluting the solution with assay buffer 2 (140 mmol/L of sodium chloride, 5 mmol/L of potassium chloride, 0.5 mmol/L of magnesium chloride, 1 mmol/L of calcium chloride, 10 mmol/L of glucose, 0.4 mmol/L of magnesium sulfate, 10 mmol/L of 4-(2-hydroxyethyl)piperazine-1-yl ethanesulfonic acid, 125 μmol/L of sulfinpyrazone, 100 μmol/L of isobutylmethylxanthine, 10 μmol/L of 1H-[1,2,4]-oxadiazole [4,3-a]quinoxaline-1-on (hereinafter, referred to as ODQ), pH 7.4), in order to adjust the concentration of 10 μmol/L for testing. As a control solution, a DMSO diluted solution was used, instead of the test compound solution.
# The activity of the test compound was calculated as an increase rate (%) of the sGC activity in the test compound solution relative to the sGC activity in the control solution, by dividing a fluorescent intensity ratio in adding the test compound by a fluorescent intensity ratio of the control solution, and subtracting the sGC activity in the control solution (100%) therefrom. An EC50 value was calculated from the activity of the test compound at concentrations of 0.0001, 0.001, 0.003, 0.01, 0.03, 0.1, 1, and 10 μmol/L, using a 4 parameter losgistic model from Assay Explorer (available from Dssault Systèmes BIOVIA).
row,Structure (SMILES),EC50 [nM]
1,"N#Cc1cccc([C@H](CN(CCCCC(=O)O)Cc2ccc(C(=O)O)cc2)OCc2ccc(Oc3ccccc3)cc2)c1 [Comparative Compound 3, reference compound]",7.01
2,"O=C(O)CCCCN(CCc1ccccc1OCc1ccc(CCc2ccccc2)cc1)Cc1ccc(C(=O)O)cc1 [Comparative Compound 1, reference compound]",8.84
3,"O=C(O)CCCCN(CCc1ccccc1OCc1ccc(CCc2ccccc2)cc1)C1COc2cc(C(=O)O)ccc21 (stereo not shown) [Comparative Compound 2, reference compound]",19.4
4,"O=C(O)CCCCN(CCc1ccccc1OCc1cccc2c1CCCC2)[C@H]1CCCc2cc(C(=O)O)ccc21 [Compound No. 8, (+)-(5S)-5-[N-(4-carboxybutyl)-N-[2-[2-(5,6,7,8-tetrahydronaphthalene-1-ylmethoxy)phenyl]ethyl]amino]-5,6,7,8-tetrahydronaphthalene-2-carboxylic acid]",6.62

# Next, values leading:
row,EC50 [nM],Structure (SMILES)
1,3.14,"O=C(O)CCCCN(Cc1ccc(C(=O)O)cc1)C[C@H](OCc1ccc(CCc2ccc(Cl)cc2)cc1)c1ccccc1 [Compound No. 6, (−)-4-([N-(4-carboxybutyl)-N-[(2R)-2-[4-[2-(4-chlorophenyl)ethyl]benzyloxy]-2-phenylethyl]amino]methyl)benzoic acid]"
2,0.46,"CC(C)(C)c1cc(CO[C@@H](CN(CCCCC(=O)O)Cc2ccc(C(=O)O)cc2)c2ccccc2)cc(C(C)(C)C)c1 [Comparative Compound 4, reference compound]"
3,5.71,"O=C(O)CCCCN(Cc1ccc(C(=O)O)cc1)C[C@H](OCc1ccc(CCc2ccccc2)cc1)c1ccccc1 [Compound No. 14, (−)-4-([N-(4-carboxybutyl)-N-[(2R)-2-[4-(2-phenylethyl)benzyloxy]-2-phenylethyl]amino]methyl)benzoic acid]"
